Numbered stars: 1 amine (or outer) side, 2 acyl side, 3 side chain; on linkers, the order of the positions; unused ones are H or OH. Bridge positions count the residues as written; N and C are the ends. Square brackets hold non-standard residues; d marks the D form. Peptide text beside a SMILES is read from it. * marks the point of attachment. Phe(3-CF3) = N[C@@H](Cc1cccc(C(F)(F)F)c1)C(=O)O; Phe(4-COOH) = N[C@@H](Cc1ccc(C(=O)O)cc1)C(=O)O; Bip = N[C@@H](Cc1ccc(-c2ccccc2)cc1)C(=O)O; NH(CH2)14COOH = O=C(O)CCCCCCCCCCCCCCN*; Phe(3-Me) = Cc1cccc(C[C@H](N)C(=O)O)c1; γGlu = O=C(O)[C@H](CCC(=O)[*:2])N[*:1]; NH(CH2)12COOH = O=C(O)CCCCCCCCCCCCN*; Val(3-OH) = CC(C)(O)[C@H](N)C(=O)O; Cha = N[C@@H](CC1CCCCC1)C(=O)O; Dap(Me) = CNC[C@H](N)C(=O)O; Carboxymethyl = O=C(O)C*; Nle = CCCC[C@H](N)C(=O)O; Orn = NCCC[C@H](N)C(=O)O; Aun = NCCCCCCCCCCC(=O)O; Dab = NCC[C@H](N)C(=O)O; Dap = NC[C@H](N)C(=O)O; AEEA = NCCOCCOCC(=O)O; Piv = CC(C)(C)C(=O)*
These molecules were tested against T1, PD-1/PD-L1 interaction (PE-labeled human PD-L1-Ig binding to Jurkat cell line over-expressing human PD-1) (Homo sapiens, UniProt Q15116) (assay: Jurkat-PD-1 Cell Binding High-Content Screening Assay (CBA)). Details: Jurkat cell line over-expressing human PD-1; PE-labeled PD-L1-Ig 20 nM final; read-out: Jurkat hPD1-PDL1 IC50.
T1 construct: expressed in transfected cells; host or cells: Jurkat
T1 sequence (Q15116 25-288): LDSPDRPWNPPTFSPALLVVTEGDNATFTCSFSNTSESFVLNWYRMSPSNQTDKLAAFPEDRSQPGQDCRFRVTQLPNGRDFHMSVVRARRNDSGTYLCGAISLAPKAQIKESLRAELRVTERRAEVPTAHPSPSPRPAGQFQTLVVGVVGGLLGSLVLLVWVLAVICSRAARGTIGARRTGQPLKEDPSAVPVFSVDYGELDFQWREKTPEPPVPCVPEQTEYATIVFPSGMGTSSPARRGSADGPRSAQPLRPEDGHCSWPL
Assay type: cell-based
Outline: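 Binding of fluorescent PD-L1-Ig (20 nM final) to Jurkat-PD-1 cells was measured by automated imaging after 1 h, following a 2 h compound pre-treatment at 37° C.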

| IC50 | Compound |
| --- | --- |
| 369 nM | CCCC[C@@H]1NC(=O)CSC[C@@H](C(=O)N[C@@H](CCN)C(=O)NCCOCCOCC(=O)N[C@@H](CO)C(=O)N[C@H](CCC(=O)NCCCCCCCCCCCCCCC(=O)O)C(=O)O)NC(=O)[C@H](CC(=O)O)NC(=O)[C@H](C(C)(C)O)NC(=O)[C@H](CC2CCCCC2)NC(=O)[C@H](CCN)NC(=O)[C@@H](CC(C)C)NC(=O)[C@H](CCCN)NC(=O)[C@H](Cc2ccc(OCC(=O)O)cc2)NC(=O)[C@H](Cc2ccc(-c3ccccc3)cc2)NC(=O)[C@H](Cc2ccc(C(=O)O)cc2)NC(=O)[C@H](Cc2cccc(C)c2)NC(=O)[C@H](CC(=O)O)NC(=O)[C@H](Cc2ccc(OCC(=O)O)cc2)NC1=O [Compound 3893] ({CH2CO}-[Nle]Y(Carboxymethyl)D[Phe(3-Me)][Phe(4-COOH)][Bip]Y(Carboxymethyl)[Orn][dL][Dab][Cha][Val(3-OH)]DC[Dab][AEEA]S[dE](NH(CH2)14COOH)-OH; thioether N-14) |
| 28.4 nM | Cc1cccc(C[C@@H]2NC(=O)[C@H](CC(=O)O)NC(=O)[C@H](Cc3ccc(OCC(=O)O)cc3)NC(=O)[C@H](CCNC(=O)C(C)(C)C)NC(=O)CSC[C@@H](C(=O)N[C@@H](CCN)C(=O)NCCCCCCCCCCC(=O)O)NC(=O)[C@H]([C@@H](C)O)NC(=O)[C@H](C(C)C)NC(=O)[C@H](CC3CCCCC3)NC(=O)[C@H](CCN)NC(=O)[C@@H](CC(C)C)NC(=O)[C@H](CCCN)NC(=O)[C@H](Cc3ccc(OCC(=O)O)cc3)NC(=O)[C@H](Cc3ccc(-c4ccccc4)cc3)NC(=O)[C@H](Cc3ccc(C(=O)O)cc3)NC2=O)c1 [Compound 2127] ({CH2CO}-[Dab](Piv)Y(Carboxymethyl)D[Phe(3-Me)][Phe(4-COOH)][Bip]Y(Carboxymethyl)[Orn][dL][Dab][Cha]VTC[Dab][Aun]-OH; thioether N-14) |
| 38.4 nM | CNC[C@@H]1NC(=O)CSC[C@@H](C(=O)N[C@@H](CCN)C(=O)NCCOCCOCC(=O)N[C@@H](CCC(=O)NCCOCCOCC(=O)NCCCCCCCCCCCCC(=O)O)C(=O)O)NC(=O)[C@H](CO)NC(=O)[C@H](C(C)(C)O)NC(=O)[C@H](CC2CCCCC2)NC(=O)[C@H](CCN)NC(=O)[C@@H](CC(C)C)NC(=O)[C@H](CCCN)NC(=O)[C@H](Cc2ccc(OCC(=O)O)cc2)NC(=O)[C@H](Cc2ccc(-c3ccccc3)cc2)NC(=O)[C@H](Cc2ccc(OCC(=O)O)cc2)NC(=O)[C@H](Cc2cccc(C(F)(F)F)c2)NC(=O)[C@H](CC(=O)O)NC(=O)[C@H](Cc2ccc(OCC(=O)O)cc2)NC1=O [Compound 3905] ({CH2CO}-[Dap(Me)]Y(Carboxymethyl)D[Phe(3-CF3)]Y(Carboxymethyl)[Bip]Y(Carboxymethyl)[Orn][dL][Dab][Cha][Val(3-OH)]SC[Dab][AEEA][γGlu][AEEA]-{NH(CH2)12COOH}; thioether N-14) |
| 39.2 nM | CC(C)C[C@H]1NC(=O)[C@H](CCCN)NC(=O)[C@H](C(C)C)NC(=O)[C@H](Cc2ccc(-c3ccccc3)cc2)NC(=O)[C@H](C(C)C)NC(=O)[C@H](Cc2c[nH]c3ccccc23)NC(=O)[C@H](CC(=O)O)NC(=O)[C@H](Cc2ccc(OCC(=O)O)cc2)NC(=O)[C@H](Cc2ccc(OCC(=O)O)cc2)NC(=O)CSC[C@@H](C(=O)N[C@@H](CCN)C(=O)NCCCCCCCCCCC(=O)O)NC(=O)[C@H](CN)NC(=O)[C@H](C(C)C)NC(=O)[C@H](CC2CCCCC2)NC(=O)[C@H](CCN)NC1=O [Compound 2562] ({CH2CO}-Y(Carboxymethyl)Y(Carboxymethyl)DWV[Bip]V[Orn][dL][Dab][Cha]V[Dap]C[Dab][Aun]-OH; thioether N-14) |

From patent US20260022142A1, “MACROCYCLIC IMMUNOMODULATORS” (Bristol-Myers Squibb Company, priority 2022, published 2026)
